The term IC50 denotes the midpoint of a concentration-inhibition curve. A high value points to weaker potency.

Where “and” joins values, the source holds several entries; their conditions need not be identical. Equal entries are not always repeated.

The test concerns the target Gag-Pol polyprotein (Human immunodeficiency virus type 1 group M subtype B (isolate HXB2), UniProt P04585). The experiment in a line: Inhibition Assay. From the text:
Inhibition assay using HIV-1 integrase.
For `CC(=O)N[C@H](CCCCN)C(=O)O` [Integrase inhibitor, R3{2}], the IC50 is 1840 nM. Then `O=Cc1ccccc1C(F)(F)F` [Integrase inhibitor, R2{5}], with 7860 nM; and `NCC1CC1` [Integrase inhibitor, R3{1}], with 3640 nM; and `CCOCCCN1C(=O)C(=O)C(C(=O)NCc2ccc(Cl)c(Cl)c2)C1c1ccccc1Oc1ccccc1` (centres undefined) [Integrase inhibitor, 2{1,4,4}], with 90 nM and 80 nM. Then `CCOCCN` [Integrase inhibitor, R3{5}], with 4130 nM; and `NCc1ccc(Cl)c(Cl)c1` [Integrase inhibitor, R1{1}], with 1340 nM; and `O=Cc1ccccc1OCC(=O)O` [Integrase inhibitor, R2{3}], with 2030 nM. For the molecule `NCc1ccc(F)cc1` [Integrase inhibitor, R1{2}], the IC50 worked out at 4050 nM.

In turn, `O=Cc1ccccc1OCc1ccccc1` [Integrase inhibitor, R2{4}] showed an IC50 of 1750 nM. For the molecule `COc1ccc(CNC(=O)C2C(=O)C(=O)N(CC3CC3)C2c2ccccc2C(F)(F)F)cc1` (centres undefined) [Integrase inhibitor, 2{3,5,1}], the IC50 was 12000 nM and 10300 nM.

As to `CN` [Integrase inhibitor, R3{3}], half-maximal inhibition (IC50) was put at 2700 nM. The figure for `COc1ccc(CN)cc1` is 3920 nM; for `CCOc1ccccc1C=O` [Integrase inhibitor, R2{2}] it is 1020 nM. Then `O=C(NCc1ccc(Cl)c(Cl)c1)C1C(=O)C(=O)N(CC2CC2)C1c1cccc2c1OCO2` (centres undefined) [Integrase inhibitor, 2{1,1,1}], with 50 nM and 39 nM. The figure for `O=Cc1cccc2c1OCO2` [Integrase inhibitor, R2{1}] is 3050 nM; for `CCOc1ccccc1C1C(C(=O)NCc2ccc(Cl)c(Cl)c2)C(=O)C(=O)N1CCCCC(NC(C)=O)C(=O)O` (centres undefined) [Integrase inhibitor, 2{1,2,2}] it is 57 nM and 26 nM. With `CCOCCCN` [Integrase inhibitor, R3{4}], the IC50 was 2110 nM.

Regarding `NCc1cc(Cl)cc(Cl)c1` [Integrase inhibitor, R1{4}], the IC50 came to 2470 nM. As for `CC(=O)NC(CCCCN1C(=O)C(=O)C(C(=O)NCc2ccc(Cl)c(Cl)c2)C1c1cccc2c1OCO2)C(=O)O` (centres undefined) [Integrase inhibitor, 2{1,1,2}], the IC50 was 67 nM and 29 nM.

These data come from BindingDB's records for doi:10.1021/cc9001026 (Bristol-Myers Squibb, 2010).
